Experimental data taken from US20140113898A1, “BISARYLSULFONE AND DIALKYLARYLSULFONE COMPOUNDS AS CALCIUM CHANNEL BLOCKERS” (Zalicus Pharmaceuticals Ltd., priority 2010, published 2014).
Where two headings read alike, the source gives them in different places.

How the values were obtained:
Type in all cases: cell-based
CaV2.2 = target: T1, CaV2.2 (Homo sapiens, UniProt Q00975); assay: High-throughput CaV2.2/Kir2.3 FLIPR fluorescent assay; settings: Fluo-4 FLIPR, closed or inactivated state not stated, read-out: FLIPR data CaV2.2
T1 construct: expressed in transfected cells; host or cells: unnamed doxycycline-inducible cell line
Summary of the method: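 Doxycycline-induced cells moved to 29 °C on assay day and were loaded with 4.4 μM Fluo-4. They were held in 2 mM KCl (closed state) or 12.5 mM KCl (inactivated state) buffer, pH 7.4, then depolarized with 130 mM KCl. Fluorescence was read 3 min on FLIPR, and IC50 was obtained from logistic fits.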

CaV3.1 = target: T2, CaV3.1 (Homo sapiens, UniProt O43497); assay: High-throughput CaV3.1 T-type FLIPR fluorescent assay; settings: Fluo-4 FLIPR
T2 construct: expressed in transfected cells; host or cells: unnamed doxycycline-inducible cell line
Procedure: Cells were plated in 384-well, clear-bottom, black-walled, poly-D-lysine coated plates (Becton Dickinson, Franklin Lake, N.J.) 2 days prior to use in the FLIPR assay. 100 μL of cells (2.0×10^6 cell/mL) containing doxycyline (Sigma-Aldrich, 1.5 μg/mL; to induce channel expression) were added to each well using a Multidrop (Thermo Scientific, Waltham, Mass.) and were maintained in 5% CO2 incubator at 37° C. On the morning of the assay, cells were transferred to a 5% CO2 incubator at 29° C.
Cells were washed with a wash buffer containing (in mM): 118 NaCl, 18.4 HEPES, 11.7 D-glucose, 0.05 CaCl2, 0.5 MgSO4, 1 KCl, and 1.2 KH2PO4, with the pH adjusted to 7.2 with NaOH. 4.4 μM of the fluorescent indicator dye, Fluo-4 (Invitrogen), prepared in pluronic acid
(Sigma-Aldrich), was loaded into the wells and incubated for 45 minutes at 29° C. in 5% CO2. Cells were then rinsed with the following low Ca^2+ buffer (in mM): 0.34 Na2HPO4, 4.2 NaHCO3, 0.44 KH2PO4, 0.41 MgSO4, 0.49 MgCl2-6H2O, 20 HEPES, 5.5 D-Glucose, 137 NaCl, 5.3 KCl, and 0.001 CaCl2, with 0.1% BSA and the pH adjusted to 7.2 with NaOH. Concentration-dependent response curves were generated from 5 mM stock solutions prepared in DMSO (Sigma-Aldrich) and diluted in the buffer containing low Ca^2+ and incubated for 20 minutes at 29° C. in 5% CO2. Calcium entry was evoked with an addition of (in mM): 0.34 Na2HPO4, 4.2 NaHCO3, 0.44 KH2PO4, 0.41 MgSO4, 0.49 MgCl2-6H2O, 20 HEPES, 5.5 D-Glucose, 137 NaCl, 5.3 KCl, and 6 CaCl2, with 0.1% BSA and the pH adjusted to 7.2 with NaOH. A change in the Fluo-4 fluorescence signal was assessed using FLIPR^TETRA™ instrument (Molecular Devices, Sunnyvale, Calif.) for 3 minutes following the elevation of extracellular KCl using an illumination wavelength of 470-495 nm with emissions recorded at 515-575 nm.
Concentration-dependent response curves were obtained by comparing the fluorescence signal in the presence of compound and fitted with a logistic function (1) to obtain the concentration that inhibited 50% (IC50) of the RLU signal using OriginPro v.7.5 software (OriginLab, Northampton, Mass.).
To assess the quality of the FLIPR assays the Z-factor (2) was used to quantify the suitability of the assay conditions using the following equation: […]
Data are expressed as mean and standard deviation (SD).

CaV3.2 = target: T3, CaV3.2 (Homo sapiens, UniProt O95180); assay: High-throughput CaV3.2/Kir2.3 T-type FLIPR fluorescent assay; settings: Fluo-4 FLIPR, closed or inactivated state not stated
T3 construct: expressed in transfected cells; host or cells: unnamed doxycycline-inducible cell line
Summary of the method: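 Doxycycline-induced cells loaded with Fluo-4, preincubated 20 min at 29°C with compound in 2 mM KCl (closed-state) or 7.6 mM KCl (inactivated-state) buffer, pH 7.4. Calcium entry triggered by 12 mM or 14.5 mM KCl respectively; fluorescence read 3 min by FLIPR, IC50 from logistic fit.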

T3 sequence (O95180 whole entry): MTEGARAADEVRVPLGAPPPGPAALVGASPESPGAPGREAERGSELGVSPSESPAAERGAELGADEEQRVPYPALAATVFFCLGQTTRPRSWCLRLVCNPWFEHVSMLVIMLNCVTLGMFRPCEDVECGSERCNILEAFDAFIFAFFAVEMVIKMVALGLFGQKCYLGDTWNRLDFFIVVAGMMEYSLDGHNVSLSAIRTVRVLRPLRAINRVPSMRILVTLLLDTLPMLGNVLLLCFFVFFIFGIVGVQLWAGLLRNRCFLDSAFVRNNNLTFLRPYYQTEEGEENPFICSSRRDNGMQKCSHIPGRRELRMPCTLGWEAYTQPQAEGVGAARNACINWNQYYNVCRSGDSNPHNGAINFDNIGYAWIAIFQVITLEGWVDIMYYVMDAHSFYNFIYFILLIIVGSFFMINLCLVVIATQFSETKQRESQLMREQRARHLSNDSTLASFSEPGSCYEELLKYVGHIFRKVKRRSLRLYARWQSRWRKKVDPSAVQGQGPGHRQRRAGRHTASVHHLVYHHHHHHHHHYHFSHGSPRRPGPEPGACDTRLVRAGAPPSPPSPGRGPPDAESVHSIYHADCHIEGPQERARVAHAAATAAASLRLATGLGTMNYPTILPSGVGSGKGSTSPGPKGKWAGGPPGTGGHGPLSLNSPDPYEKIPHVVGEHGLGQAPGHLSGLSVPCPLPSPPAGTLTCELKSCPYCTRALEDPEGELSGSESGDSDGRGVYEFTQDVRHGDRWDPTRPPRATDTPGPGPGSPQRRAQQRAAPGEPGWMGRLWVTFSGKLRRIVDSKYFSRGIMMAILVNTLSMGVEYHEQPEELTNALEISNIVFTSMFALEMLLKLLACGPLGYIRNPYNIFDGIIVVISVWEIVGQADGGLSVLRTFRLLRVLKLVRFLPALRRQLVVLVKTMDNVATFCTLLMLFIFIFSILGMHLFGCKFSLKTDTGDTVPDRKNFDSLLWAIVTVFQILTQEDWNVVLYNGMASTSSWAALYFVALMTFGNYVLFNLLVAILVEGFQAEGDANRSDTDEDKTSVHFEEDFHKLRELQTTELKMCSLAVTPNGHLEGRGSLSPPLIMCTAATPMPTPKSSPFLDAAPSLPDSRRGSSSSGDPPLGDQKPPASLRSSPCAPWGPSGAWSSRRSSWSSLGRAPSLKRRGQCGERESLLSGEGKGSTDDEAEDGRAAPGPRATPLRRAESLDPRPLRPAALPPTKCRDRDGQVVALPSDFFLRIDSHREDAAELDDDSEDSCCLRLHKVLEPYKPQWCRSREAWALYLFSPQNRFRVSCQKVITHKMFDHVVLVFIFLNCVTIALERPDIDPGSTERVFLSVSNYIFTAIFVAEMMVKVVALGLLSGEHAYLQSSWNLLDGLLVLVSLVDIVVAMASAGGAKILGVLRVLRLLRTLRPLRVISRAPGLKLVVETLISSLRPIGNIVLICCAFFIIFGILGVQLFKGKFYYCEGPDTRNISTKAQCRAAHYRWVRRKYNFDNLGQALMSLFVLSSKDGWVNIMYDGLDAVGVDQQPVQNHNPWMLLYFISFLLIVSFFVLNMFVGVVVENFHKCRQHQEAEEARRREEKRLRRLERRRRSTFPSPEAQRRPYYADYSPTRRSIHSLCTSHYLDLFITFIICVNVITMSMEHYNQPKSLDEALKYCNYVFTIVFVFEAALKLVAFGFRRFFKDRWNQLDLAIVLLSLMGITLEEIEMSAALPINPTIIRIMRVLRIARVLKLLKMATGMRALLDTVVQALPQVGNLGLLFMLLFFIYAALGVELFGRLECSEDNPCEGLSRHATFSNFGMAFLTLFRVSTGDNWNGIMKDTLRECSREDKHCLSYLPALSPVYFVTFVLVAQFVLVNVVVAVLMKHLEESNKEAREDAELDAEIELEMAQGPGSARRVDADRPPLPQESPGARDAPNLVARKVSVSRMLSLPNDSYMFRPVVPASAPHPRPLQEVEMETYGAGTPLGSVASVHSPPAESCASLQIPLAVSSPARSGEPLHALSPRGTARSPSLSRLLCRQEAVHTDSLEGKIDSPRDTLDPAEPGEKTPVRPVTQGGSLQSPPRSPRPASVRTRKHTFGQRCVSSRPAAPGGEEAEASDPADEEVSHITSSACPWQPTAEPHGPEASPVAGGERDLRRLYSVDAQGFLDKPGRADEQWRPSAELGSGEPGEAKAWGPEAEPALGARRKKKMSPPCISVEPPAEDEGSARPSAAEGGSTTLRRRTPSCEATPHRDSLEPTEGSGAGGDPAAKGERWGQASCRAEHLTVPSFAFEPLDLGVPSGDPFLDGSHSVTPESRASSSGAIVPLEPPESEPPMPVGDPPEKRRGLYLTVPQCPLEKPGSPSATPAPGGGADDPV
T2 sequence (O43497 whole entry): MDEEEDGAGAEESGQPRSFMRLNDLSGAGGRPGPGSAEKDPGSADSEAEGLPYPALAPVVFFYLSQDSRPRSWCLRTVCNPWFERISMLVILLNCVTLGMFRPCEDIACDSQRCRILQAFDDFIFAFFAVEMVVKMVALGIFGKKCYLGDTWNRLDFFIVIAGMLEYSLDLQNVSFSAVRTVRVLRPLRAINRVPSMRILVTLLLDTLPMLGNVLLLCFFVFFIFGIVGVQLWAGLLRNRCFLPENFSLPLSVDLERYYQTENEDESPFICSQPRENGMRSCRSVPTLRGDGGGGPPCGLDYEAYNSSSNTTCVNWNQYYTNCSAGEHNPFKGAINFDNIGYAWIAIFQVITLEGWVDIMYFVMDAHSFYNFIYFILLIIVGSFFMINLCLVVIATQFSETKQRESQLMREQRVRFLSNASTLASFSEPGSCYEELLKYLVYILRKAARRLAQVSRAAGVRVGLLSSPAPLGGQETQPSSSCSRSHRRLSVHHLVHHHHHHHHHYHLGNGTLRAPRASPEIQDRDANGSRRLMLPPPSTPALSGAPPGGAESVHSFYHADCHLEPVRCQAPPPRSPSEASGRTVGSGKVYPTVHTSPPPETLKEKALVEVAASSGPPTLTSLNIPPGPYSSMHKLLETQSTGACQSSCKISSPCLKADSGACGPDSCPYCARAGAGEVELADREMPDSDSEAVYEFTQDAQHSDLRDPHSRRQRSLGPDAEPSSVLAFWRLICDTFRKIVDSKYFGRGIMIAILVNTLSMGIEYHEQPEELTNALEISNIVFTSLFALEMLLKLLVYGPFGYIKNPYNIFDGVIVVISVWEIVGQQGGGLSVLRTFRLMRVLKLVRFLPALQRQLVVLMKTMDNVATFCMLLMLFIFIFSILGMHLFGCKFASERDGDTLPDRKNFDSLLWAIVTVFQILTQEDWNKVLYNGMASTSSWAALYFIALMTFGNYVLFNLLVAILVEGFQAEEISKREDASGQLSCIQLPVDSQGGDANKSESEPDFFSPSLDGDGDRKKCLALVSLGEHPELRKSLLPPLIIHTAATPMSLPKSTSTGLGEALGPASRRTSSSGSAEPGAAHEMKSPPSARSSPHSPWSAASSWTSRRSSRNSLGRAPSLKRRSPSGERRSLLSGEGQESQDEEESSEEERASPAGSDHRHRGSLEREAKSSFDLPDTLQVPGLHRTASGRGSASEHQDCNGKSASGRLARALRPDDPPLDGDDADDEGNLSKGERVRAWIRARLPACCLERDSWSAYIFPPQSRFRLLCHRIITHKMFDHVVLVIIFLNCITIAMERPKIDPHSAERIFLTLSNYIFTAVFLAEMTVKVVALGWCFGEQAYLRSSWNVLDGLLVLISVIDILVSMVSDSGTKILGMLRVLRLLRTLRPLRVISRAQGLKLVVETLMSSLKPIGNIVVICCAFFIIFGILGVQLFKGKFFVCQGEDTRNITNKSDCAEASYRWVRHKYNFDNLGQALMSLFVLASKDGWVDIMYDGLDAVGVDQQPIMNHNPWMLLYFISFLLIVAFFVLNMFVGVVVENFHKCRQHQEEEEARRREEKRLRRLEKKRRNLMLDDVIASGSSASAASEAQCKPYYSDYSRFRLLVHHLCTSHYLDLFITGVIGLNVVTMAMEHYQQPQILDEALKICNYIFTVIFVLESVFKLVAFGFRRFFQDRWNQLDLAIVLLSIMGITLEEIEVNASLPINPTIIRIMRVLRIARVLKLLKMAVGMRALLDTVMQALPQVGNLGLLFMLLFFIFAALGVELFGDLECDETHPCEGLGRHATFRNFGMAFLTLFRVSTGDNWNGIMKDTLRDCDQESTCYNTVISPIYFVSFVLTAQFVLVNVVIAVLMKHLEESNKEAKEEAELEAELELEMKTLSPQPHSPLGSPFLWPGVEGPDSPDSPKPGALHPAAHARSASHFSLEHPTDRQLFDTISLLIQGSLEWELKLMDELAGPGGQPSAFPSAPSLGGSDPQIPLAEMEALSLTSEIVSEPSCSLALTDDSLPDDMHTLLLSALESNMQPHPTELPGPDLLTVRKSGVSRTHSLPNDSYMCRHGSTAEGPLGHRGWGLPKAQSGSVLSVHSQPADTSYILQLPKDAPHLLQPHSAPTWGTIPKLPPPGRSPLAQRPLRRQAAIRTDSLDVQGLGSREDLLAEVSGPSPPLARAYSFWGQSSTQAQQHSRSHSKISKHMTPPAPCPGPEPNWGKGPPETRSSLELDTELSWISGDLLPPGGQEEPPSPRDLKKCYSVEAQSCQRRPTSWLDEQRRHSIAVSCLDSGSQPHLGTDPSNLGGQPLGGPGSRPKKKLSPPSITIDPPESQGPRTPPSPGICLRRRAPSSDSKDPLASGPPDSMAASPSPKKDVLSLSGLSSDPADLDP

Row | IC50 (CaV2.2; Table 4) [nM] | IC50 (CaV3.1; Table 4) [nM] | IC50 (CaV3.2; Table 4) [nM] | IC50 (CaV2.2; Table 5) [nM] | IC50 (CaV3.1; Table 5) [nM] | IC50 (CaV3.2; Table 5) [nM] | SMILES
1 | 170 | 1690 | 1260 |  |  |  | CC(C)(C(=O)NCc1ccc(S(=O)(=O)c2cccc(C(F)(F)F)c2)cn1)S(=O)(=O)c1cccc(C(F)(F)F)c1 [Compound 87, 2-methyl-2-((3-(trifluoromethyl)phenyl)sulfonyl)-N-((5-((3-(trifluoromethyl)phenyl)sulfonyl)pyridin-2-yl)methyl)propanamide]
2 |  |  |  | 250 | 1770 | 1020 | CC(C)(CCNC(=O)C(C)(C)S(=O)(=O)c1cccc(C(F)(F)F)c1)S(=O)(=O)c1cccc(C(F)(F)F)c1 [Compound 150, 2-methyl-N-(3-methyl-3-((3-(trifluoromethyl)phenyl)sulfonyl)butyl)-2-((3-(trifluoromethyl)phenyl)sulfonyl)propanamide]
3 | 490 | 2100 | 970 |  |  |  | O=C(NCc1cccc(S(=O)(=O)c2cccc(C(F)(F)F)c2)c1)c1ccc(C(F)(F)F)nc1 [Compound 19, 6-(trifluoromethyl)-N-(3-((3-(trifluoromethyl)phenyl)sulfonyl)benzyl)nicotinamide]
4 | 160 | 1400 | 370 |  |  |  | O=C(NCc1cccc(S(=O)(=O)c2cccc(C(F)(F)F)c2)c1)c1cn2cc(C(F)(F)F)ccc2n1 [Compound 32, 6-(trifluoromethyl)-N-(3-((3-(trifluoromethyl)phenyl)sulfonyl)benzyl)imidazo[1,2-a]pyridine-2-carboxamide]
5 | 470 | 1350 | 2370 |  |  |  | CS(=O)(=O)c1cc(C(F)(F)F)cnc1C(=O)NCc1ccc(S(=O)(=O)c2cccc(C(F)(F)F)c2)cc1 [Compound 5, 3-(methylsulfonyl)-5-(trifluoromethyl)-N-(4-((3-(trifluoromethyl)phenyl)sulfonyl)benzyl)picolinamide]
6 |  |  |  | 410 | 8220 | 5090 | CC(C)(C(=O)NCC(O)c1ccc(C(F)(F)F)cc1)S(=O)(=O)c1cccc(C(F)(F)F)c1 (stereo not drawn) [Compound 140, N-(2-hydroxy-2-(4-(trifluoromethyl)phenyl)ethyl)-2-methyl-2-((3-(trifluoromethyl)phenyl)sulfonyl)propanamide]
7 | 680 | 1420 | 1610 |  |  |  | O=C(NCc1ccccc1S(=O)(=O)c1cccc(C(F)(F)F)c1)c1cc(F)cc(Cl)c1 [Compound 37, 3-chloro-5-fluoro-N-(2-((3-(trifluoromethyl)phenyl)sulfonyl)benzyl)benzamide]
8 | 490 | 2050 | 570 |  |  |  | CS(=O)(=O)c1cc(C(=O)NCc2cccc(S(=O)(=O)c3cccc(C(F)(F)F)c3)c2)cc(C(F)(F)F)n1 [Compound 23, 2-(methylsulfonyl)-6-(trifluoromethyl)-N-(3-((3-(trifluoromethyl)phenyl)sulfonyl)benzyl)isonicotinamide]
9 |  |  |  | 400 | 630 | 350 | CC(C)(C(=O)NCc1ccccc1S(=O)(=O)c1cccc(C(F)(F)F)c1)S(=O)(=O)c1cccc(C(F)(F)F)c1 [Compound 227, 2-methyl-2-((3-(trifluoromethyl)phenyl)sulfonyl)-N-(2-((3-(trifluoromethyl)phenyl)sulfonyl)benzyl)propanamide]
10 | 230 | 720 | 1030 |  |  |  | CC(C)S(=O)(=O)c1cc(C(F)(F)F)cnc1C(=O)NCc1ccccc1S(=O)(=O)c1cccc(C(F)(F)F)c1 [Compound 44, 3-(isopropylsulfonyl)-5-(trifluoromethyl)-N-(2-((3-(trifluoromethyl)phenyl)sulfonyl)benzyl)picolinamide]
11 | 590 | 270 | 2130 |  |  |  | CS(=O)(=O)c1cc(C(F)(F)F)ccc1C(=O)NCc1ccccc1S(=O)(=O)c1cccc(C(F)(F)F)c1 [Compound 47, 2-(methylsulfonyl)-4-(trifluoromethyl)-N-(2-((3-(trifluoromethyl)phenyl)sulfonyl)benzyl)benzamide]

Second part, the compound before the results:

Row | SMILES | IC50 (CaV2.2; Table 4) [nM] | IC50 (CaV3.1; Table 4) [nM] | IC50 (CaV3.2; Table 4) [nM] | IC50 (CaV2.2; Table 5) [nM] | IC50 (CaV3.1; Table 5) [nM] | IC50 (CaV3.2; Table 5) [nM]
12 | O=C(NCc1ccc(S(=O)(=O)c2cccc(C(F)(F)F)c2)cc1)c1ccnc(C(F)(F)F)c1 [Compound 16, 2-(trifluoromethyl)-N-(4-((3-(trifluoromethyl)phenyl)sulfonyl)benzyl)isonicotinamide] | 940 | 1430 | 640 |  |  | 
13 | CS(=O)(=O)c1cc(C(=O)NCc2ccc(S(=O)(=O)c3cccc(C(F)(F)F)c3)cc2)cc(C(F)(F)F)n1 [Compound 10, 2-(methylsulfonyl)-6-(trifluoromethyl)-N-(4-((3-(trifluoromethyl)phenyl)sulfonyl)benzyl)isonicotinamide] | 690 | 1970 | 980 |  |  | 
14 | CS(=O)(=O)c1cc(C(=O)NCc2ccc(S(=O)(=O)c3cccc(C(F)(F)F)c3)cn2)cc(C(F)(F)F)n1 [Compound 94, 2-(methylsulfonyl)-6-(trifluoromethyl)-N-((5-((3-(trifluoromethyl)phenyl)sulfonyl)pyridin-2-yl)methyl)isonicotinamide] | 820 | 1630 | 1450 |  |  | 
15 | Cn1nc(C(F)(F)F)cc1C(=O)NCc1cccc(S(=O)(=O)c2cccc(C(F)(F)F)c2)c1 [Compound 22, 1-methyl-3-(trifluoromethyl)-N-(3-((3-(trifluoromethyl)phenyl)sulfonyl)benzyl)-1H-pyrazole-5-carboxamide] | 220 | 3010 | 640 |  |  | 
16 | O=C(NCc1cccc(S(=O)(=O)c2cccc(C(F)(F)F)c2)c1)c1ccnn1CC(F)(F)F [Compound 29, 1-(2,2,2-trifluoroethyl)-N-(3-((3-(trifluoromethyl)phenyl)sulfonyl)benzyl)-1H-pyrazole-5-carboxamide] | 340 | 1850 | 600 |  |  | 
17 | O=C(NCc1ccc(S(=O)(=O)c2cccc(C(F)(F)F)c2)cc1)c1ccc(C(F)(F)F)nc1 [Compound 3, 6-(trifluoromethy)-N-(4-((3-(trifluoromethyl)phenyl)sulfonyl)benzyl)nicotinamide] | 510 | 1340 | 650 |  |  | 
18 | CC(C)(C(=O)Nc1ccc(Oc2ccc(C(F)(F)F)nc2)nc1)S(=O)(=O)c1cccc(OC(F)(F)F)c1 [Compound 122, 2-methyl-2-((3-(trifluoromethoxy)phenyl)sulfonyl)-N-(6-((6-(trifluoromethyl)pyridin-3-yl)oxy)pyridin-3-yl)propanamide] |  |  |  | 700 | 4890 | 1640
19 | O=C(NCc1ccc(S(=O)(=O)c2cccc(C(F)(F)F)c2)cn1)c1cc(F)cc(Cl)c1 [Compound 89, 3-chloro-5-fluoro-N-((5-((3-(trifluoromethyl)phenyl)sulfonyl)pyridin-2-yl)methyl)benzamide] | 970 | 1580 | 1740 |  |  | 
20 | CC(C)(C(=O)N1CCC(c2ccc(C(F)(F)F)cc2)CC1)S(=O)(=O)c1cccc(C(F)(F)F)c1 [Compound 136, 2-methyl-1-(4-(4-(trifluoromethyl)phenyl)piperidin-1-yl)-2-((3-(trifluoromethyl)phenyl)sulfonyl)propan-1-one] |  |  |  | 390 | 4400 | 2440
21 | O=C(NCc1ccc(S(=O)(=O)c2cccc(C(F)(F)F)c2)cn1)c1cn2cc(C(F)(F)F)ccc2n1 [Compound 103, 6-(trifluoromethyl)-N-((5-((3-(trifluoromethyl)phenyl)sulfonyl)pyridin-2-yl)methyl)imidazo[1,2-a]pyridine-2-carboxamide] | 830 | 2060 | 1250 |  |  | 
